Assay results: patent publication US8951993B2, “Phosphorus containing compounds as protein kinase inhibitors” (Jiangsu Hansoh Pharmaceutical Co., Ltd., priority 2011, dated 2015)
Where two headings read alike, the source gives them in different places.

Columns and labels:
ALK [1] = biological target: T1, ALK (Homo sapiens, UniProt Q9UM73); experiment: Inhibition of ALK phosphorylation (sandwich ELISA, pY1604) in Karpas299 cells; assay type: cell-based; parameters: NPM1 portion (fusion partner, nucleophosmin, P06748); host or cells: Karpas299; SU-DHL-1; the other entry of the earlier key: NPM1 (P06748, Nucleophosmin); conditions: 1 hour, serum-free
Description: (§1) Karpas299 and SU-DHL-1 cells were purchased from Deutsche Sammlung von Mikroorganismen and Zellkulturen (Germany). H2228 was purchased from American Type Culture Collection (USA). All cells were cultured in the recommended medium and serum concentration. Cells were maintained at 37° C. in a humidified atmosphere with 5% CO2. For ALK kinase phosphorylation, cells were seeded in 96-well plates overnight in medium supplemented with 10% fetal bovine serum […]. After 24 hours, the medium was removed and cells were cultured in serum-free medium at 37° C. in the presence of various concentrations of the test articles for 1 hour. After incubation with the tested articles, cells were washed once with HBSS supplemented with 1 mM Na3VO4 and protein lysates were generated. Subsequently, phosphorylation of ALK was assessed by a sandwich ELISA method using an immobilized anti-total-ALK antibody and an anti-phospho-ALK antibody (pY1604) as a detection antibody. IC50 value was calculated using median-effect method. (Chou 2006).
Target sequence in this assay (Q9UM73 with tags, fused parts or gaps): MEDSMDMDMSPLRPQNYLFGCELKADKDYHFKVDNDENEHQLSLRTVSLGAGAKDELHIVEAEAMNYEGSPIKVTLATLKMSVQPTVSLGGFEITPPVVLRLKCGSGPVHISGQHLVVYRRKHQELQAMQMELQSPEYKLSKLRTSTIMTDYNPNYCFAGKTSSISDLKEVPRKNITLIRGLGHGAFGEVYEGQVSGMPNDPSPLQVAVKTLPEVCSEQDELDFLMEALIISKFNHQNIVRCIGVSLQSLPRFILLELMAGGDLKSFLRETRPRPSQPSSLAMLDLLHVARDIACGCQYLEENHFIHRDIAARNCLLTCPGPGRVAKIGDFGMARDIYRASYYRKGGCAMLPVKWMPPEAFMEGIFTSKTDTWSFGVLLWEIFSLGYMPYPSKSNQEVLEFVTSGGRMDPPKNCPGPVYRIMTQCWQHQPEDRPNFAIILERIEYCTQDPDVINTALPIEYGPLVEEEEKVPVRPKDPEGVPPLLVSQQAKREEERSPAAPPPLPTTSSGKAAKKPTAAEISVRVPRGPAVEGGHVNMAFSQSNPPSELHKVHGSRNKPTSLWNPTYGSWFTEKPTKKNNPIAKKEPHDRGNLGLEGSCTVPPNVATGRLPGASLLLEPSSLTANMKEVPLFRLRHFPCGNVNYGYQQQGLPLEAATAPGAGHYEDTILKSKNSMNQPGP

Karpas299 = experiment: Cell proliferation assay (MTS / BrdU), Karpas299; assay type: cell-based; conditions: Homo sapiens, KARPAS-299; 72 hours, 2% FBS
Description: as §1
(§2) For cell proliferation assay, cells were seeded in 96-well pates at low density at 37° C. in medium supplemented with 10% FBS and after 24 hours were switched to low serum medium (2% FBS). Cells were further incubated in the presence of the test articles at various concentrations at 37° C. for 72 hours. Two assays were employed to determine the relative cell numbers. One is a 3-(4,5-dimethylthiazol-2-yl)-5-(3-carboxymethoxyphenyl)-2-(4-sulfophenyl)-2H-tetrazolium (MTS) assay using a CellTiter 96® Aqueous Non-Radioactive Cell Proliferation kit (Promega), and the other is a BrdU incorporation assay using a DELFIA® Cell Proliferation Kit (Perkin Elmer). IC50 value was calculated using median-effect method (Chou 2006).

ALK [2] = biological target: T1, ALK; experiment: Inhibition of ALK phosphorylation (sandwich ELISA, pY1604), cell line not given; assay type: cell-based; parameters: fused on or other part: Q9HC35 (Echinoderm microtubule-associated protein-like 4); conditions: 1 hour, serum-free
Description: as §1
Target sequence in this assay (Q9UM73 1058-1620 limits assumed): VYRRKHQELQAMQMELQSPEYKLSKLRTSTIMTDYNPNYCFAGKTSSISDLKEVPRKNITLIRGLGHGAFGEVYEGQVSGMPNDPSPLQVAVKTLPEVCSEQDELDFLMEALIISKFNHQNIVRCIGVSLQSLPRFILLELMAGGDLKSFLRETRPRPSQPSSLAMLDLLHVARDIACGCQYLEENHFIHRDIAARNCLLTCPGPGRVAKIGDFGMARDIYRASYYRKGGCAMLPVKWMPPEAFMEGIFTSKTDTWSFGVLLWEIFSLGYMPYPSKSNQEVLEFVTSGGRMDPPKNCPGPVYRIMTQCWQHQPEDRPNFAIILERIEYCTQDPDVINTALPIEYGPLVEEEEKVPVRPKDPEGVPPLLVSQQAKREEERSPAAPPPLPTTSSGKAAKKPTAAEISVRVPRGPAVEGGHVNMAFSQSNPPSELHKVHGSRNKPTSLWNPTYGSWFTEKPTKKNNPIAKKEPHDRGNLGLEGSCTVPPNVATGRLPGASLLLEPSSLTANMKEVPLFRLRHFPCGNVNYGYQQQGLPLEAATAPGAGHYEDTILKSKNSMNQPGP

[3] = Pharmacokinetic assay, intravenous and oral administration; assay type: in vivo, Sprague-Dawley rats or beagle dogs; conditions: plasma; for half-life: after oral administration in rats or dogs; for bioavailability: oral administration in rats or dogs, read-out: oral bioavailabilty
Description: The tested articles were given to Sprague-Dawley rats or beagle dogs by intravenous and oral administration. Plasma samples were prepared from blood samples which were collected at various time points. The plasma concentrations of the tested articles were determined by specific LC-MS/MS analytical methods. Pharmacokinetic parameters were calculated with WinNonlin®.

ALK [4] = biological target: T1, ALK; experiment: ALK enzyme activity assay (HTRF KinEASE); assay type: biochemical; parameters: purchased Millipore Company (Billerica, Mass., USA); conditions: ATP 25 μM, 30° C. 30 minutes
Description: ALK Enzyme Activity Assay:
ALK kinase was purchased from Millipore Company (Billerica, Mass., USA). HTRF®KinEASET™ was purchased from Cisbio Company (Bedford, Mass., USA). The assay was conducted according to the procedure provided in the assay kit. In brief, incubation was carried out in the kinase buffer containing ALK (0.3 ng/μL), ATP (25 μM), TK substrate-biotin (10 μM), DTT (1 mM), MgCl2 (5 mM), MnCl2 (5 mM) in the presence of the tested articles at various concentrations in 384-well plate at 30° C. for 30 minutes. The reaction was stopped by addition of Sa-XL665 in EDTA solution, and the phosphorylated substrate was detected with a proprietary phospho-specific monoclonal antibody labeled with Eu^3+-Cryptate and a proprietary biotinylated kinase substrate detected using XL665 labeled streptavidin. IC50 value was calculated using median-effect method (Chou 2006).
Target sequence in this assay (Q9UM73 19-1620): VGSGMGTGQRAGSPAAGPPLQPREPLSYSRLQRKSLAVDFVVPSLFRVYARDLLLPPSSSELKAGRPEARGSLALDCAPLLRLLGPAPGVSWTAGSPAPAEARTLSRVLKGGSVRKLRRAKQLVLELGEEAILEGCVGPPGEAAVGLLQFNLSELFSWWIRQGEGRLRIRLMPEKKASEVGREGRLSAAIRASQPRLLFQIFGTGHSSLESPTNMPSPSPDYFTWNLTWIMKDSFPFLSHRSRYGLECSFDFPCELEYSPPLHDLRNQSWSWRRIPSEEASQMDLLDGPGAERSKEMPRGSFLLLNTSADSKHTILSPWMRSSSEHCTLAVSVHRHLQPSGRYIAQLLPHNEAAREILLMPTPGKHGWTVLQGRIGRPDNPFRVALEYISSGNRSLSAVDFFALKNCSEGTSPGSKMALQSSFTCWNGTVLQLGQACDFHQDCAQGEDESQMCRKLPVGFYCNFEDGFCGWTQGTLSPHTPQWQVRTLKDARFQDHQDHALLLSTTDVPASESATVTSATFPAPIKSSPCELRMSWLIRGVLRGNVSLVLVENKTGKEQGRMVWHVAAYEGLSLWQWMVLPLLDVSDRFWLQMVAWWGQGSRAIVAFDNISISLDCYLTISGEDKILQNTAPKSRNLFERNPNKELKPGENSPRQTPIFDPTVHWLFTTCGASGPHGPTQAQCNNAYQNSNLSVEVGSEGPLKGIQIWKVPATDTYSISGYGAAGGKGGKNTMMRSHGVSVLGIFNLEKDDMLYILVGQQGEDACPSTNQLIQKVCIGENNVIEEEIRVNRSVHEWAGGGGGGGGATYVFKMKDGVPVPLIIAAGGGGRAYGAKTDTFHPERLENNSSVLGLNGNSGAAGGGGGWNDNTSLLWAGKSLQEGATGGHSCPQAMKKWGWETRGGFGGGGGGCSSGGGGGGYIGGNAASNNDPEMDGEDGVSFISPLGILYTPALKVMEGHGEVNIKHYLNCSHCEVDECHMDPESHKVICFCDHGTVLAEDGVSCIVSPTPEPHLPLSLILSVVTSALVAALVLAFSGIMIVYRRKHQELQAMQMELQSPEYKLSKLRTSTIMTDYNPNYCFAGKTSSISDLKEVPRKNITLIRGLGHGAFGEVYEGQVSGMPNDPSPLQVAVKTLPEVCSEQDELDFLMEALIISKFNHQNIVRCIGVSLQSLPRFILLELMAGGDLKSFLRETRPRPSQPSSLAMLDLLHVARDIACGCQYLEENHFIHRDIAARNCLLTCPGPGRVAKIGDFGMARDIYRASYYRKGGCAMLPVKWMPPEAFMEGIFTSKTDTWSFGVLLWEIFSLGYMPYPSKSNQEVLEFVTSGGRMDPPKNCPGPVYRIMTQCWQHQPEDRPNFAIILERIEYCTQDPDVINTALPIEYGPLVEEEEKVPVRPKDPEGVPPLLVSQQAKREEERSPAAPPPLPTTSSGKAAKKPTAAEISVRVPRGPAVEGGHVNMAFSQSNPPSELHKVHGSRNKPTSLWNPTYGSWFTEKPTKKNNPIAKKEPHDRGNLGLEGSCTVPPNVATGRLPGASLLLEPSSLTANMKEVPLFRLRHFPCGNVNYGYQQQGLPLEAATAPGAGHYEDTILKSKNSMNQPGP

SU-DHL-1 = experiment: Cell proliferation assay (MTS / BrdU), SU-DHL-1; assay type: cell-based; conditions: Homo sapiens, 72 hours, 2% FBS
Description: as §1, §2

H2228 = experiment: Cell proliferation assay (MTS / BrdU), H2228; assay type: cell-based; conditions: Homo sapiens, NCI-H2228; 72 hours, 2% FBS
Description: as §1, §2

ALK [5] = biological target: T1, ALK; experiment: Inhibition of ALK phosphorylation (sandwich ELISA, pY1604) in SU-DHL-1 cells; assay type: cell-based; parameters: NPM1 portion (fusion partner, nucleophosmin, P06748); host or cells: Karpas299; SU-DHL-1; the other entry of the earlier key: NPM1 (P06748, Nucleophosmin); conditions: 1 hour, serum-free
Description: as §1

[6] = system: lung cancer cell line H2228; experiment: H2228 xenograft studies in athymic mice; assay type: in vivo, athymic mice (nude/nud mouse); conditions: for reduced the tumor size: 14 days oral dosing at 60 mg/kg (BID)
From the text: Xenograft model was developed in athymic mice (nude/nud mouse) with lung cancer cell line H2228 purchased from the American Type Culture Collection Company (Manassas, Va., USA). In brief, H2228 cells (1×10^7) were implanted s.c. into the hind flank region of each mouse and allowed to grow to the designated size (c.a. 150-200 mm^3) before administration of the tested articles. The tested articles were given orally at various dose levels twice daily for 10-14 days. Tumor volume and body weight were measured during the experiments. Tumor regression values were determined using the standard approach.

NPM1-ALK = biological target: T2, NPM1-ALK (Homo sapiens, UniProt Q9UM73); experiment: Off-chip mobility shift assay (Carna Biosciences), NPM1-ALK; assay type: biochemical
T2 construct: purchased Carna Biosciences (Chuo-ku, Kobe, Japan); the other entry of the earlier key: NPM1 (P06748, Nucleophosmin)
Description: (§3) The activities of ALK wild type, its mutant F1174L, R1275Q, L1196M and EML4-ALK, NPM1-ALK were also determined using off-chip mobility shift assay at Carna Biosciences (Chuo-ku, Kobe, Japan). In brief, 5 μL of ×4 compound solution, 5 μL of ×4 substrate/ATP/metal solution and 10 μL of ×2 kinase solution were prepared with assay buffer (20 mM HEPES, 0.01% Triton X-100, 2 mM DTT, pH 7.5) and mixed and incubated in a well of polypropylene 384 well microplate for 1 or 5 hours (depending on the enzyme). The ATP concentration used in the reaction was 50 μM for ALK wild type, F1174L mutant, EML4-ALK and NPM1-ALK, and 100 μM for R1275Q and 72 μM for L1196M. An aliquot of 60 μL of termination buffer (QuickScout Screening Assist MSA, Carna Biosciences) was added to each well to terminate the reactions. The reaction mixture was applied to LabChip3000 system (Caliper Life Science), and the product and substrate peptide peaks were separated and quantitated. The kinase reaction was evaluated by the product ratio calculated from peak heights of product (P) and substrate (S) peptides (P/(P+S)). IC50 value was calculated from concentration vs. % Inhibition curves by fitting to a four parameter logistic curve.

EML4-ALK = biological target: T3, EML4-ALK (Homo sapiens, UniProt Q9UM73); experiment: Off-chip mobility shift assay (Carna Biosciences), EML4-ALK; assay type: biochemical
T3 construct: purchased Carna Biosciences (Chuo-ku, Kobe, Japan); the other entry of the earlier key: EML4 (Q9HC35, Echinoderm microtubule-associated protein-like 4)
T3 sequence (Q9UM73 with tags, fused parts or gaps): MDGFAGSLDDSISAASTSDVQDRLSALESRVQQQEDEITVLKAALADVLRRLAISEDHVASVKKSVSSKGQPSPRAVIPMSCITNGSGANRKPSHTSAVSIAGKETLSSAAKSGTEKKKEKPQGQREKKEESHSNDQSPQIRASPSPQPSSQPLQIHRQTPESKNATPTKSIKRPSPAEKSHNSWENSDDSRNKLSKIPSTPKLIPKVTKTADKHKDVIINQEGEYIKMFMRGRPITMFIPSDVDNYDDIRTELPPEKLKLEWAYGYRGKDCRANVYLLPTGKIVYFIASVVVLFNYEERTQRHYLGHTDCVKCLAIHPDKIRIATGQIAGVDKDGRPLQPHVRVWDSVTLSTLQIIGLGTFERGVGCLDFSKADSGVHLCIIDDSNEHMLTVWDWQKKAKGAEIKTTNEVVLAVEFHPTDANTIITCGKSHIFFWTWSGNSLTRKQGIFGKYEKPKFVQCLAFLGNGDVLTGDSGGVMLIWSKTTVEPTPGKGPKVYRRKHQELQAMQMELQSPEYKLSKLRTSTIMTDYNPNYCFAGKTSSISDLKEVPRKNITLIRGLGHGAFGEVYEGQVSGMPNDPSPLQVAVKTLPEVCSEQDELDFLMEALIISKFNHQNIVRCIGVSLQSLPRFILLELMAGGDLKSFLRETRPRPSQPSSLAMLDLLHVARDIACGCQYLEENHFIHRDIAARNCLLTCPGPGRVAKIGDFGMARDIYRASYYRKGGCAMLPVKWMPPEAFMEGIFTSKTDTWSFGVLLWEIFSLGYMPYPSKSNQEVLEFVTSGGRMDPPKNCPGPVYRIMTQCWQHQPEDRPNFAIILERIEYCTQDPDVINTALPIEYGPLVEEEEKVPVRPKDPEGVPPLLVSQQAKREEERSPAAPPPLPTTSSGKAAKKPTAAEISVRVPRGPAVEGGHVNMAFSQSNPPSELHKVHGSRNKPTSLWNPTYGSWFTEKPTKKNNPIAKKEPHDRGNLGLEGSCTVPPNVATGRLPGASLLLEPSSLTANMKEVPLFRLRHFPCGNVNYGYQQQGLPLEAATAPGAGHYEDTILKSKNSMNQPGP
Description: as §3

ALK mutant L1196M = biological target: T4, ALK mutant L1196M (Homo sapiens, UniProt Q9UM73, L1196M); experiment: Off-chip mobility shift assay (Carna Biosciences), ALK L1196M; assay type: biochemical
T4 construct: purchased Carna Biosciences (Chuo-ku, Kobe, Japan)
T4 sequence (Q9UM73 19-1620 L1196M): as the sequence (Q9UM73 19-1620) above, with L1178M counted along it
Description: as §3

ALK wild type = biological target: T5, ALK wild type (Homo sapiens, UniProt Q9UM73); experiment: Off-chip mobility shift assay (Carna Biosciences), ALK wild type; assay type: biochemical
T5 construct: purchased Carna Biosciences (Chuo-ku, Kobe, Japan)
T5 sequence (Q9UM73 19-1620): as the sequence (Q9UM73 19-1620) above
Description: as §3

ALK mutant R1275Q = biological target: T6, ALK mutant R1275Q (Homo sapiens, UniProt Q9UM73, R1275Q); experiment: Off-chip mobility shift assay (Carna Biosciences), ALK R1275Q; assay type: biochemical
T6 construct: purchased Carna Biosciences (Chuo-ku, Kobe, Japan)
T6 sequence (Q9UM73 19-1620 R1275Q): as the sequence (Q9UM73 19-1620) above, with R1257Q counted along it
Description: as §3

ALK mutant F1174L = biological target: T7, ALK mutant F1174L (Homo sapiens, UniProt Q9UM73, F1174L); experiment: Off-chip mobility shift assay (Carna Biosciences), ALK F1174L; assay type: biochemical
T7 construct: purchased Carna Biosciences (Chuo-ku, Kobe, Japan)
T7 sequence (Q9UM73 19-1620 F1174L): as the sequence (Q9UM73 19-1620) above, with F1156L counted along it
Description: as §3

cytochrome P450 3A4 = cytochrome P450 3A4 (Homo sapiens, UniProt P08684); conditions: reported; causing clinical drug-drug interactions; cited from earlier work
Chain of cytochrome P450 3A4 (P08684 whole entry): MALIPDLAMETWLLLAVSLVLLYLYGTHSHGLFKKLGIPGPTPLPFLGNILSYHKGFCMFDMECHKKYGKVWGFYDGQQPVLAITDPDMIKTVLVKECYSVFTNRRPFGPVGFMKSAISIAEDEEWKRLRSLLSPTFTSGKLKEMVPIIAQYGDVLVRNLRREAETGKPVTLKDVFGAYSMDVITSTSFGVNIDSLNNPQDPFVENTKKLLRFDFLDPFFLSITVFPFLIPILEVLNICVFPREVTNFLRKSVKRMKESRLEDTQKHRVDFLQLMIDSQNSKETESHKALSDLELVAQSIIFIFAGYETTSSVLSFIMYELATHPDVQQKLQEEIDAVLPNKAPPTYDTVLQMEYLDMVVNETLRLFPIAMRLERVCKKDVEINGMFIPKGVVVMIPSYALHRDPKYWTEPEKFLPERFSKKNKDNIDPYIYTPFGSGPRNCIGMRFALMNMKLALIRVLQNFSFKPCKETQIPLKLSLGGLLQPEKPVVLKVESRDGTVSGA

[7] = footnote #: NPM1-ALK, read-out: IC50 ALK Kinase (# NPM1-ALK)
[8] = mobility shift, ATP 50 μM, read-out: IC50 NPM1-ALK
[9] = footnote #: EML4-ALK, read-out: IC50 ALK Kinase (# EML4-ALK)
[10] = mobility shift, ATP 50 μM, read-out: IC50 EML4-ALK
[11] = footnote #: L1196M, read-out: IC50 ALK Kinase (# mutant L1196M)
[12] = mobility shift, ATP 72 μM, read-out: IC50 ALK L1196M
[13] = footnote #: ALK wild type, read-out: IC50 ALK Kinase (# ALK wild type)
[14] = mobility shift, ATP 50 μM, read-out: IC50 ALK wild type
[15] = footnote #: R1275Q, read-out: IC50 ALK Kinase (# mutant R1275Q)
[16] = mobility shift, ATP 100 μM, read-out: IC50 ALK R1275Q
[17] = footnote #: F1174L, read-out: IC50 ALK Kinase (# mutant F1174L)
[18] = mobility shift, ATP 50 μM, read-out: IC50 ALK F1174L

Row | Structure (SMILES) | IC50 (ALK [1]) [nM] | IC50 (Karpas299) [nM] | IC50 (ALK [2]) [nM] | half-life [3] [h] | bioavailability [3] [%] | IC50 (ALK [4]) [nM] | IC50 (SU-DHL-1) [nM] | IC50 (H2228) [nM] | IC50 (ALK [5]) [nM] | inhibition of tumor growth compared to the vehicle control ([6]; 20 mg/kg oral BID) [%] | inhibition of tumor growth compared to the vehicle control ([6]; 60 mg/kg oral BID) [%] | reduced the tumor size [6] | IC50 (NPM1-ALK; [7]) [nM] | IC50 (NPM1-ALK; [8]) [nM] | IC50 (EML4-ALK; [9]) [nM] | IC50 (EML4-ALK; [10]) [nM] | IC50 (ALK mutant L1196M; [11]) [nM] | IC50 (ALK mutant L1196M; [12]) [nM] | IC50 (ALK wild type; [13]) [nM] | IC50 (ALK wild type; [14]) [nM] | also measured
1 | CC(Oc1cc(-c2ccc(P(C)(C)=O)cc2)cnc1N)c1c(Cl)ccc(F)c1Cl (stereo not shown) [Example 1, 3-[1-(2,6-dichloro-3-fluoro-phenyl)ethoxy]-5-(4-dimethylphosphorylphenyl)pyridin-2-amine] | < 100 | 100 to 500 | < 500 | > 3 | > 20 | 100 to 500 | < 100 | < 100 |  |  |  |  |  |  |  |  |  |  |  |  | 
2 | COc1cc(P(C)(C)=O)ccc1-c1cnc(N)c(OC(C)c2c(Cl)ccc(F)c2Cl)c1 (stereo not shown) [Example 8, 3-[1-(2,6-dichloro-3-fluoro-phenyl)ethoxy]-5-(4-dimethylphosphoryl-2-methoxy-phenyl)pyridin-2-amine] | < 100 | < 100 |  | > 3 | > 20 | < 100 | < 100 | < 100 | < 50 |  |  |  |  |  |  |  |  |  |  |  | 
3 | C[C@@H](Oc1cc(-c2ccc(P(C)(C)=O)cc2)cnc1N)c1c(Cl)ccc(F)c1Cl [Example 23, 3-[(1R)-1-(2,6-dichloro-3-fluoro-phenyl)ethoxy]-5-(4-dimethylphosphorylphenyl)pyridin-2-amine] | < 100 | < 100 | < 50 |  |  | 100 to 500 | < 100 | < 100 | < 50 |  |  |  |  |  |  |  |  |  |  |  | 
4 | COc1cc(P(C)(C)=O)ccc1-c1cnc(N)c(O[C@H](C)c2c(Cl)ccc(F)c2Cl)c1 [Example 24, 3-[(1R)-1-(2,6-dichloro-3-fluoro-phenyl)ethoxy]-5-(4-dimethylphosphoryl-2-methoxy-phenyl)pyridin-2-amine] | < 100 | < 100 | < 50 |  |  |  | < 100 | < 100 | < 50 | 79 | 93 | approximately 80% | < 100 | < 50 | < 100 | < 50 | < 100 | < 50 | < 100 | < 50 | IC50 (ALK mutant R1275Q; [15]): < 100 nM; IC50 (ALK mutant R1275Q; [16]): < 50 nM; IC50 (ALK mutant F1174L; [17]): < 100 nM; IC50 (ALK mutant F1174L; [18]): < 50 nM
5 | C[C@@H](Oc1cc(-c2ccc(P(C)(C)=O)cc2F)cnc1N)c1c(Cl)ccc(F)c1Cl [Example 25, 3-[(1R)-1-(2,6-dichloro-3-fluoro-phenyl)ethoxy]-5-(4-dimethylphosphoryl-2-fluoro-phenyl)pyridin-2-amine] | < 100 | < 100 | < 50 |  |  |  | < 100 | < 100 | < 50 | 73 | 93 | approximately 80% | < 100 | < 50 | < 100 | < 50 | < 100 | < 50 | < 100 | < 50 | inhibition of tumor growth compared to the vehicle control ([6]; 6 mg/kg oral BID): 46%; IC50 (ALK mutant R1275Q; [15]): < 100 nM; IC50 (ALK mutant R1275Q; [16]): < 50 nM; IC50 (ALK mutant F1174L; [17]): < 100 nM; IC50 (ALK mutant F1174L; [18]): < 50 nM
6 | C[C@@H](Oc1cc(-c2cnn(C3CCNCC3)c2)cnc1N)c1c(Cl)ccc(F)c1Cl [crizotinib] |  |  |  |  |  |  |  |  |  |  |  |  |  |  |  |  |  |  |  |  | cytochrome P450 3A4 inhibition (cytochrome P450 3A4): time-dependent cytochrome P450 3A4 inhibitor
